Row | Structure (SMILES) | melting point [°C]
1 | CCc1cc2c(s1)-n1c(C)nnc1C(CCCCC(=O)Nc1ccccc1)N=C2c1ccc(Cl)cc1 (stereo not given) | 238 to 240
2 | CC(C)(C)C(CO)NC(=O)C(CC(=O)O)N1C=CN(c2ccc(-c3ccccc3)cc2)C1 (mixture of isomers) | 145 to 150
3 | Cc1ccc2c(c1)C(C(Cl)(Cl)Cl)OC(C(Cl)(Cl)Cl)O2 (stereo not given) | 134 to 135
4 | O=C(c1[nH]ncc1-c1csc(Nc2ncccn2)n1)C1CC1 | 244
5 | COc1cc2c(cc1C=O)OCC2 | 82 to 84
6 | CN(Cc1ccc(Cl)nc1)C(N)=N[N+](=O)[O-] | 158
7 | CC(=CCCC(C)C1CCC2(C)C3=CCC4C(C)(C)C(=O)CCC4(C)C3=CCC12C)CO (stereo not given) | 75 to 80
8 | CCCCc1nc2c(=O)n(Cc3ccc(-c4ccccc4C#N)cc3)ccc2n1Cc1ccc(-c2ccccc2C#N)cc1 | 83
9 | Fc1cccc(F)c1N1CS/C1=N/N=C\c1ccc(-c2ncn(-c3ccc(OC(F)(F)F)cc3)n2)cc1 | 144 to 146
10 | CNC(=O)c1ccccc1Nc1nc(Nc2ccc3c(c2)CCC(NCC(F)F)CC3)ncc1Cl (stereo not given) | 182 to 183
11 | NS(=O)(=O)c1ccc(-c2nc(-c3ncn4c(C(F)(F)F)cc(-c5ccc(C(F)(F)F)cc5)nc34)no2)cc1 | 303
12 | Nc1cccc(-c2ccc(CCN3CCN(C(=O)COc4ccccc4)CC3)cc2)n1 | 127 to 130
13 | COc1ccc(-c2nn(Cc3ccc(Cl)cc3)c(=S)cc2-c2ccncc2)cc1 | 144 to 145
14 | O=C(O)C(=C1SCCCS1)c1cccc(C(F)(F)F)c1 | 165 to 166
15 | CC1CCc2ccc(OCC(O)CNC3CCCCC3)cc2O1 (stereo not given) | 97 to 99
16 | COc1ccc(-c2cc(C(Cl)Cl)nn2-c2ccc(S(N)(=O)=O)cc2)cc1F | 190 to 193
17 | COc1nc2cc([N+](=O)[O-])c(C)c(C(=O)N(C)C)c2nc1OC | 138 to 141
18 | CC(C)Nc1cccnc1N1CCN(C(=O)c2ccc(C(=O)N(CCO)Cc3ccccc3)cc2)CC1 | 99 to 101
19 | CC(C)(C)c1cc(CCc2ccccc2NC(=O)N2CCOCC2)cc(C(C)(C)C)c1O | 186 to 189
20 | Clc1[nH]c2ccccc2c1Sc1ccccc1 | 98 to 99
21 | Clc1ccc2nc(Cl)nc(-c3ccccc3Cl)c2c1 | 175 to 176
22 | NS(=O)(=O)c1ccc(-n2nc(CF)cc2-c2ccccc2)cc1 | 162 to 163
23 | CSC(=C[N+](=O)[O-])NCCCBr | 92 to 92.5
24 | CC(N(CCCl)C(N)=O)P(=O)(O)O (stereo not given) | 180
25 | O=C(c1cc(C(F)(F)F)cc(C(F)(F)F)c1)N1CCC2(CC1)C(=O)N(c1cc(Cl)ncn1)CN2c1ccccc1 | 212 to 214
26 | CC(=O)NNc1nnc(-c2ccccc2)c(-c2ccccc2)n1 | 166 to 168
27 | C=CCNC(=O)ON=C1CCOc2ccccc21 | 83 to 86
28 | O=C(c1ccc(F)cc1)N1CCCC(c2nc(Oc3ccccc3)no2)C1 (stereo not given) | 96 to 100

Row | Structure (SMILES) | melting point [°C]
29 | COCOc1ccc(C=C[N+](=O)[O-])cc1OCc1ccccc1 | 75 to 76
30 | Cn1cnnc1C(O)(c1ccc(Cl)cc1)c1ccc2[nH]c(=O)cc(-c3cccc(Cl)c3)c2c1 (stereo not given) | > 260
31 | Clc1ccc2c(c1)C(NC1=NCCS1)CCC2 (stereo not given) | 164 to 166
32 | COc1cc(C(C#N)CCC(C#N)c2cc(OC)c(OC)c(OC)c2)cc(OC)c1OC (stereo not given) | 173 to 174
33 | CCCCCSc1ccc(CN(O)C(N)=S)s1 | 112 to 114
34 | CCOC(=O)c1ncn2c1[C@@H]1CCN1C(=O)c1cc(F)ccc1-2 | 226 to 227
35 | O=C(Nc1ccc(F)c(C(F)(F)F)c1)C1C(=O)C2CCC(C2)C1=O (stereo not given) | 97 to 100
36 | CCC(O)CP(=O)(O)CCCN (stereo not given) | 184 to 185
37 | CS(=O)(=O)Nn1c(=O)[nH]c2cc([N+](=O)[O-])c(-n3cccc3)cc2c1=O | 243 to 250
38 | COC(=O)CC=CC=CC=CC=CC=Cc1ccsc1 | 206 to 208
39 | Cn1cc(C(=O)NCC(=O)NCC2(O)CCC2)c(C(F)(F)F)n1 | 210
40 | CS(=O)(=O)c1ccc(-n2nc(C(F)(F)F)cc2-c2nc3ccc(F)cc3s2)cc1 | 194 to 196
41 | CCCCCCCCCCc1cc2c(s1)-n1c(C)nnc1CN=C2c1ccccc1OC | 90 to 92
42 | Cn1c2nc3ccccc3nc2c2cccc(CO)c21 | 237 to 238
43 | Nc1nc2c(ncn2[C@H]2CC[C@@H](CO)C2)c(=O)[nH]1 | 269
44 | NC(=O)c1c(F)cc(-c2ccc3nnn(Cc4ccc5ncccc5c4)c3n2)cc1F | 272 to 275
45 | COc1cc(N2CCC(N3CCCN(CCO)CC3)CC2)ccc1Nc1ncc2ccc(-c3ccccc3N(C)S(C)(=O)=O)n2n1 | 91 to 104
46 | O=C(Nc1ccccc1F)N1CCc2cc(S(=O)(=O)N3CCN(c4cccc(Cl)c4)CC3)ccc21 | 174 to 175
47 | O=C(Nc1cn(C2CCCCO2)nc1C(=O)NCC(O)Cc1ccccc1)c1ccccn1 (stereo not given) | 132 to 134
48 | NCCCP(=O)(O)C1CCCCC1 | 202 to 203
49 | CC1=NN(CCCn2ccnc2)Cc2cc3ccccn3c21 | 162 to 163
50 | CC(=O)c1cc(C2CCCCC2)ccc1O | < 50
51 | O=C(NCCO)c1c([N+](=O)[O-])ccc(N(CCBr)CCBr)c1[N+](=O)[O-] | 94 to 97
52 | CC(Cl)(Cl)C(NC(=O)c1cccnc1)NC(=NC#N)Nc1ccc(Cl)nc1 (stereo not given) | 212 to 213
53 | CNC(=S)Nc1nc(C(C)c2ccc(-c3ccccc3)c(F)c2)cs1 (stereo not given) | 180 to 181
54 | COc1ccccc1COc1ccc(S(=O)(=O)c2ccc(C)nc2Nc2cc(F)c(N(C)C)cc2Cl)cc1 | 68 to 70
55 | COc1ccc(N2C(=O)[C@H](O[Si](C(C)C)(C(C)C)C(C)C)[C@@H]2CC(C)C)cc1 | 59 to 60

Second part, the molecule after the results:

Row | melting point [°C] | Structure (SMILES)
56 | 182 to 183 | CNC(=O)c1cnn(-c2ccc(Cl)cc2Cl)c1C#N
57 | 134 to 137 | CCC1Cc2cc(OCC(=O)OC)c(Cl)c(Cl)c2C1=O (stereo not given)
58 | 163 to 165 | CCC(=O)SCC(Cc1ccccc1)C(=O)Nc1cccc(C(=O)O)c1C (stereo not given)
59 | 79 to 82 | C=C(Cn1ccnc1)c1cc(F)ccc1OCc1ccc(Cl)cc1Cl
60 | 244 to 245 | O=C(Nc1cc(Cl)cc(Cl)c1)c1cc(I)ccc1O
61 | 206 to 208 | CC(Oc1ncn(-c2cccc(C(F)(F)F)c2)n1)C(=O)O (stereo not given)
62 | 51 to 54 | N#Cc1ccc(OCCCCCI)cc1
63 | 122 to 123 | COCCOc1cc(N(C)S(=O)(=O)c2cccs2)c2[nH]c(C3=NCC(CCO)S3)cc2c1 (stereo not given)
64 | 82 to 90 | O=[N+]([O-])c1cc(OCc2ccccc2)c2ccccc2c1CCO
65 | 159 to 163 | CC(=O)OCC1OC(n2cc(S)c(=O)[nH]c2=O)CC1(O)C(C)=O (stereo not given)
66 | 208 to 211 | CCCCOc1ccc(CCNc2ncnc(CC)c2C(=O)O)cc1
67 | 312 to 314 | CC(C)C(=O)Nc1ccc2ncn3c(=O)c(C(=O)O)cnc3c2c1
68 | 154 to 156 | COc1cccc(Sc2ccc3c(c2)CC[C@H]2NC(=O)CC[C@]32C)c1
69 | > 270 | CCCOc1ccc(/C=C/c2nc3c([nH]2)c(=O)n(CC)c(=O)n3CC)cc1
70 | 145 to 146 | CC1=C(C(=O)O)N2C(=O)C(NC(=O)Cc3ccc(CCl)cc3)C2SC1 (stereo not given)
71 | 194 to 195 | CCCn1c(COCC)nc2c(N)nc3cc(OC4CCN(C(=O)OC(C)(C)C)CC4)ccc3c21
72 | 47 to 47.5 | COC(=O)CNc1cccc(CF)c1
73 | 170 to 172 | CCC(=O)c1cnc2c(OCCO)cccc2c1Nc1ccc(F)cc1C
74 | 59 to 62 | CCCS(=O)(=O)N(COC)C(=O)c1nc(OC)cc(OC)n1
75 | 129 to 130 | COC(=O)c1nc(C)c(-c2nccs2)s1
76 | 128 to 130 | CCC(CC)=NOC(=O)c1cc(-n2c(=O)cc(C(F)(F)F)n(C)c2=O)c(F)cc1Cl
77 | 62 to 64 | CC[C@H](COC)n1cc(Cl)nc(N2CCc3cc(OC)cc(C)c32)c1=O
78 | 44 to 46 | CCN1CCc2cc3ccccc3n2CC1

Row | melting point [°C] | Structure (SMILES)
79 | 180 to 187 | CN1C(=O)c2cccc(SCc3ccccc3)c2C1=O
80 | 167 to 168 | CN(C)CCNC1=CC(=O)c2nc(-c3ccc4ccccc4c3)sc2C1=O
81 | 264 to 266 | CCOC(=O)c1c[nH]c2cc(C(=O)NC3CCN(Cc4ccccc4)CC3)nn2c1=O
82 | 139 to 141 | COc1ccc(C(=O)c2ccc(F)cc2F)c(Cl)c1Cl
83 | 229 to 233 | O=S1(=O)c2ccccc2-c2ccc(F)cc21
84 | 126 to 128 | COc1ccc(C(=O)CCC(=O)N[C@@H](C)C(=O)O)cc1F
85 | 150 | COc1ccc2c(c1)C(C(=O)O)=Cc1ccccc1O2
86 | 78 to 79 | COC(=O)c1cc2cc(C)ccc2s1
87 | 112 to 119 | CON1C(=O)CC2(CCN(CCNC(=O)c3cccnc3)CC2)C1=O
88 | 123 to 124 | Cc1cc(C(=O)c2ccccc2)ccc1NC(=O)C(C)(O)C(F)(F)F (stereo not given)
89 | 288 to 290 | O=S1(=O)N=C(NCC2CC2)Nc2ccc(Cl)cc21
90 | 166 to 168 | CCc1cccc(CC)c1NC(=O)NCC1(c2ccccc2)CC1
91 | 102 to 109 | CCCc1c(C(=O)NCc2ccc(-c3ccc(OCC#N)c(Br)c3)cc2)cnn1-c1ccccc1
92 | 108 to 109 | CNC(=O)C(=O)CCCCCCS(=O)(=O)c1ccc2ccccc2c1
93 | 147 to 148 | CCN(CC)C(=O)c1c(-c2ccccc2)ccc2cc(-c3ccc(OC)cc3)ccc12
94 | 185 to 187 | C#Cc1ccc2c(c1)c(=O)c(C(=O)OCC)cn2CC
95 | 132 to 134 | COC(=O)c1cc(Cl)cc(C(=O)OC)n1
96 | 156 to 160 | CCOC(=O)[C@@H]1CN(CC2=Cc3ccc(OC)cc32)CC[C@H]1O (relative stereo)
97 | 134 to 135 | CCOC(=O)COc1cc(O)c2c(c1)NC1(CCCCC1)CC2=O
98 | 193 to 195 | N#Cc1ccc(NS(=O)(=O)c2ccc(Cl)cc2)c([N+](=O)[O-])c1
99 | 87.1 to 87.5 | CCCCCCOC(=O)Oc1ccc(-c2ccc(C#N)cc2)cc1
100 | 206 to 208 | CCC(=O)Nc1c(C(=O)c2cccc(Cl)c2)[nH]c2ccc(Cl)cc12

Reference: a melting point compilation (Tetko et al.; mined from patent text by program, amines drawn as free bases though some values may be those of a salt)
